Measurements published in PMC7367873, “Dissecting the sequence determinants for dephosphorylation by the catalytic subunits of phosphatases PP1 and PP2A” (Nature Communications, 2020).

Legend:
PP1c/PP2Ac = assay: PP1c versus PP2Ac specificity of p-sites (pairwise comparison / hierarchical clustering of phosphoproteomic data); assay type: biochemical, human; details: HeLa Kyoto lysate; for Sensitivity (phosphatase exclusively dephosphorylating the p-site): p-site significantly decreased exclusively by PP1c or PP2Ac, 1 µM phosphatase, 1 h, 30 °C
Method: For phosphoproteomics, HeLa Kyoto cells were incubated with 20 nM Calyculin A (CST, #9902) for 10–15 min. This time point was determined empirically to yield maximal phosphatase inhibition without cells showing pleiotropic effects. Subsequently, cells were placed on ice and washed twice with cold PBS and scraped in lysis buffer (100 mM NaCl, 10 mM Tris, 0.1% IGEPAL, 1 mM EDTA, 1 mM EGTA, 20 nM Calyculin A, 1x cOmplete Mini protease inhibitor cocktail (Sigma), 1 mM DTT, 1 mM MnCl2, pH 7.5). After 10 pushes through an injection needle (21 G, BD), lysate was cleared from the insoluble fraction by centrifugation (10 min, 10^4 rcf, 4 °C). Protein concentration was then determined by a Bradford Assay and equal amounts of 1 mg total protein were incubated with recombinant PP1c/PP2Ac or buffer at a final phosphatase concentration of 1 µM in a total volume of 200 µL for 1 h at 30 °C. Lysates were then immediately placed on ice. PhosStop […] (Roche) was added and proteins were denatured by adding urea to a final concentration of 8 M taking into account the volume increase. Samples were then snap-frozen in liquid nitrogen for storage and subsequent MS analysis.
Downstream analysis of the phosphoproteomic datasets was carried out using the software tool Perseus[66]. For analysis of phosphoproteomic experiments, row-wise, median-normalized data (see previous section) was linked to known regulatory sites by PhosphoSitePlus entries and categorical columns for treatments were assigned. Reverse peptides and potential contaminants were filtered. Next, categorical columns for biological functions and treatments were assigned. TMT reporter intensities were then transformed into log2. At this point, all data were then filtered for valid values in all three replicates of at least one condition. Next, the distribution of TMT reporter intensities was assessed visually by plotting count-based histogramms and in a multiscatter plot using the Pearson correlation as an estimate of reproducibility. Next, NA (=not available: missing) values were replaced by imputation from a normal distribution (width 0.3, down-shift 1.8, per column). The data quality was routinely assessed by two means: First, by plotting a histogram of peptide length vs. counts and visualization of imputed values to confirm a normal distribution of the data, and secondly by principal component analysis (default settings in Perseus) to judge the sample grouping.
For hierarchical clustering, the results of the one-way ANOVA were processed for two more steps in Perseus: first data were filtered for significant hits from the one-way ANOVA and then subjected to z-transformation. Hierarchical clustering images were produced using Euclidean distance, 300 clusters and 10 rounds of iteration.
Also all further data processing for protein enrichment and extraction of protein sequences in positions −5 to +5 relative to the p-sites of interest for subsequent motif analysis was performed using RStudio with R v3.3.2 using the packages tidyverse and BioStrings. In order to study the sequence specificity of PP1c and PP2Ac on the protein level, position specific probability matrices, representing the relative occurrence for each amino acid surrounding pSer/pThr were produced by extracting sequence information in positions −5 to +5 for all PP1c/PP2Ac-sensitive class I p-sites. Next, the count for each amino acid in each position was divided by the total of all counts for a certain position, resulting in relative abundance. […] Importantly, amino acids with less than 25 counts in PP1-sensitive/-insensitive or PP2A-sensitive/insensitive comparisons were excluded. For calculating a heat map directly comparing PP1c against PP2Ac, these fold changes were divided. […] Obtained p-values were adjusted for multiple testing using the method of Benjamini and Hochberg.
PP1c/PP2Ac-sensitive class I sites were divided into three classes as illustrated for PP1c in Supplementary Fig. 4c. […]

[1] = tested on: GFP-14-3-3β and its binding proteins; assay: GFP-14-3-3β co-IP with LC-MS/MS label-free quantification, untreated versus PP1c-treated; parameters: species or system human
GFP-14-3-3β = GFP-14-3-3β co-IP with LC-MS/MS, untreated GFP-14-3-3β versus GFP control (14-3-3 interactome); assay type: binding, human
[2] = pairwise comparison PP1 vs untreated
[3] = pairwise comparison untreated vs GFP
[4] = PP1 vs untreated, LFQ intensities, replicates 1-3
[5] = untreated vs GFP, LFQ intensities, replicates 1-3
[6] = GFP-14-3-3β co-IP LC-MS/MS, PP1 vs untreated, student's t-test, label-free quantification, 3 replicates each
[7] = GFP-14-3-3β co-IP LC-MS/MS, untreated vs GFP, student's t-test, label-free quantification, 3 replicates each
[8] = pairwise comparison PP1 vs untreated, student's t-test, 3 replicates each, LC-MS/MS label-free quantification
[9] = pairwise comparison untreated GFP-14-3-3β vs GFP, student's t-test, 3 replicates each, LC-MS/MS label-free quantification
[10] = PP1 vs untreated, LFQ intensities, 3 replicates each
[11] = untreated vs GFP, LFQ intensities, 3 replicates each

Substance: EVPVPPPVPPRRRPESAPAESSPSKIMSKHL [SOS1 1161]
- Sensitivity (phosphatase exclusively dephosphorylating the p-site) (PP1c/PP2Ac): PP1c

Substance: HPPRKISTEDINKRLSLPADIRLPEGYLEKL [CDK16 119]
- Sensitivity (phosphatase exclusively dephosphorylating the p-site) (PP1c/PP2Ac): PP1c

Substance: HSF1 303: 14-3-3 interaction site, window KEEPPSPPQSP
- Sensitivity (phosphatase exclusively dephosphorylating the p-site) (PP1c/PP2Ac): PP2Ac

Substance: HSF1 307: 14-3-3 interaction site, window PSPPQSPRVEE
- Sensitivity (phosphatase exclusively dephosphorylating the p-site) (PP1c/PP2Ac): PP2Ac

Substance: ISPTIVQQFGYQRRASDDGKLTDPSKTSNTI [RAF1 43]
- Sensitivity (phosphatase exclusively dephosphorylating the p-site) (PP1c/PP2Ac): PP1c

Substance: KGDIKSKSRSRSQSRSNSPLPVPPSKARSVS [SRSF6 301]
- Sensitivity (phosphatase exclusively dephosphorylating the p-site) (PP1c/PP2Ac): PP1c

Substance: KRKSKSRSRSKRPPKSPEEEGQMSS______ [SRSF8 273]
- Sensitivity (phosphatase exclusively dephosphorylating the p-site) (PP1c/PP2Ac): PP1c

Substance: LHQCISRRAENARSASFSQGTRASFLMRSDT [GAB2 210]
- GAB2 pS210 dephosphorylation in phosphoproteomic assay (PP1c/PP2Ac; 1 µM PP1c or PP2Ac): dephosphorylated by PP1c but not PP2Ac
- Sensitivity (phosphatase exclusively dephosphorylating the p-site) (PP1c/PP2Ac): PP1c

Substance: NIFSRGANRMRGRLGSVDSFERSNSLASEKD [TBC1D4 588]
- Sensitivity (phosphatase exclusively dephosphorylating the p-site) (PP1c/PP2Ac): PP1c

Substance: SPPPVSKRESKSRSRSKSPPKSPEEEGAVSS [SRSF2 206]
- Sensitivity (phosphatase exclusively dephosphorylating the p-site) (PP1c/PP2Ac): PP1c

Substance: SRSF1 199: S/R-rich splicing factor p-site, window VDGPRSPSYGR
- Sensitivity (phosphatase exclusively dephosphorylating the p-site) (PP1c/PP2Ac): PP1c

Substance: SRSF2 189: S/R-rich splicing factor p-site, window RSRSRSRSPPP
- Sensitivity (phosphatase exclusively dephosphorylating the p-site) (PP1c/PP2Ac): PP1c

Substance: SRSF2 191: S/R-rich splicing factor p-site, window RSRSRSPPPVS
- Sensitivity (phosphatase exclusively dephosphorylating the p-site) (PP1c/PP2Ac): PP1c

Substance: SRSF4/5/6 113;117;119: S/R-rich splicing factor p-site, window VENLSSRCSWQ
- Sensitivity (phosphatase exclusively dephosphorylating the p-site) (PP1c/PP2Ac): PP2Ac

Substance: SRSF5 231: S/R-rich splicing factor p-site, window KSRSVSRSPVP
- Sensitivity (phosphatase exclusively dephosphorylating the p-site) (PP1c/PP2Ac): PP1c

Substance: SRSF5 233: S/R-rich splicing factor p-site, window RSVSRSPVPEK
- Sensitivity (phosphatase exclusively dephosphorylating the p-site) (PP1c/PP2Ac): PP1c

Substance: SRSF7 192: S/R-rich splicing factor p-site, window SRYFQSPSRSR
- Sensitivity (phosphatase exclusively dephosphorylating the p-site) (PP1c/PP2Ac): PP1c

Substance: SRSF8 158: S/R-rich splicing factor p-site, window SRYSRSPYSRS
- Sensitivity (phosphatase exclusively dephosphorylating the p-site) (PP1c/PP2Ac): PP1c

Substance: SRSF8 163: S/R-rich splicing factor p-site, window SPYSRSPYSRS
- Sensitivity (phosphatase exclusively dephosphorylating the p-site) (PP1c/PP2Ac): PP1c

Substance: SRSF10 133: S/R-rich splicing factor p-site, window RSRSRSFDYNY
- Sensitivity (phosphatase exclusively dephosphorylating the p-site) (PP1c/PP2Ac): PP1c

Substance: TJP1
- Difference (log2), PP1 vs untreated [1, 2]: -0.07001 log2
- Difference (log2), untreated vs GFP (GFP-14-3-3β; [3]): 1.92 log2

Substance: TNKS1BP1
- Difference (log2), PP1 vs untreated [1, 4]: -1.162 log2
- Difference (log2), untreated vs GFP (GFP-14-3-3β; [5]): 1.91 log2

Substance: TOMM40
- Difference (log2), PP1 vs untreated [1, 2]: -0.1328 log2
- Difference (log2), untreated vs GFP (GFP-14-3-3β; [3]): 1.138 log2

Substance: TOP2A
- Difference (log2), PP1 vs untreated [1, 6]: -0.6623 log2
- Difference (log2), untreated vs GFP (GFP-14-3-3β; [7]): 3 log2

Substance: TPM4
- Difference (log2), PP1 vs untreated [1, 8]: -3.308 log2
- Difference (log2), untreated vs GFP (GFP-14-3-3β; [9]): 0.1774 log2

Substance: TRIM25
- Difference (log2), PP1 vs untreated [1, 2]: 0.1738 log2
- Difference (log2), untreated vs GFP (GFP-14-3-3β; [3]): -0.2184 log2

Substance: TRIM29
- Difference (log2), PP1 vs untreated [1, 6]: -0.3516 log2
- Difference (log2), untreated vs GFP (GFP-14-3-3β; [7]): 0.4899 log2

Substance: TSC2
- Difference (log2), PP1 vs untreated [1, 8]: -4.834 log2
- Difference (log2), untreated vs GFP (GFP-14-3-3β; [9]): 4.192 log2

Substance: TTC27
- Difference (log2), PP1 vs untreated [1, 10]: 0.3393 log2
- Difference (log2), untreated vs GFP (GFP-14-3-3β; [11]): 0.5169 log2

Substance: TTC28
- Difference (log2), PP1 vs untreated [1, 8]: -4.888 log2
- Difference (log2), untreated vs GFP (GFP-14-3-3β; [9]): 4.184 log2

Substance: TUBA1B
- Difference (log2), PP1 vs untreated [1, 2]: 0.07589 log2
- Difference (log2), untreated vs GFP (GFP-14-3-3β; [3]): -0.8319 log2

Substance: TUBA4A
- Difference (log2), PP1 vs untreated [1, 10]: 0.3784 log2
- Difference (log2), untreated vs GFP (GFP-14-3-3β; [11]): -0.9346 log2

Substance: TUBB
- Difference (log2), PP1 vs untreated [1, 6]: -0.1729 log2
- Difference (log2), untreated vs GFP (GFP-14-3-3β; [7]): -1.012 log2

Substance: TUBB4B
- Difference (log2), PP1 vs untreated [1, 6]: -0.5591 log2
- Difference (log2), untreated vs GFP (GFP-14-3-3β; [7]): -0.8458 log2

Substance: USP10
- Difference (log2), PP1 vs untreated [1, 10]: 0.4174 log2
- Difference (log2), untreated vs GFP (GFP-14-3-3β; [11]): 1.017 log2

Substance: VDAC1
- Difference (log2), PP1 vs untreated [1, 10]: 0.6266 log2
- Difference (log2), untreated vs GFP (GFP-14-3-3β; [11]): 1.0866 log2

Substance: VIM
- Difference (log2), PP1 vs untreated [1, 2]: 0.1241 log2
- Difference (log2), untreated vs GFP (GFP-14-3-3β; [3]): 0.4109 log2

Substance: VPS13D
- Difference (log2), PP1 vs untreated [1, 8]: -2.609 log2
- Difference (log2), untreated vs GFP (GFP-14-3-3β; [9]): 3.223 log2

Substance: WDR62
- Difference (log2), PP1 vs untreated [1, 8]: -3.602 log2
- Difference (log2), untreated vs GFP (GFP-14-3-3β; [9]): 4.129 log2

Substance: WWC1
- Difference (log2), PP1 vs untreated [1, 8]: -3.748 log2
- Difference (log2), untreated vs GFP (GFP-14-3-3β; [9]): 3.436 log2

Substance: WWC2
- Difference (log2), PP1 vs untreated [1, 8]: -3.571 log2
- Difference (log2), untreated vs GFP (GFP-14-3-3β; [9]): 4.409 log2

Substance: WWTR1
- Difference (log2), PP1 vs untreated [1, 8]: -4.48 log2
- Difference (log2), untreated vs GFP (GFP-14-3-3β; [9]): 5.399 log2

Substance: XRCC5
- Difference (log2), PP1 vs untreated [1, 2]: 0.08186 log2
- Difference (log2), untreated vs GFP (GFP-14-3-3β; [3]): -0.1105 log2

Substance: XRCC6
- Difference (log2), PP1 vs untreated [1, 2]: -0.1289 log2
- Difference (log2), untreated vs GFP (GFP-14-3-3β; [3]): -0.01757 log2

Substance: YAP1
- Difference (log2), PP1 vs untreated [1, 8]: -2.787 log2
- Difference (log2), untreated vs GFP (GFP-14-3-3β; [9]): 8.338 log2

Substance: YES1
- Difference (log2), PP1 vs untreated [1, 4]: -0.8848 log2
- Difference (log2), untreated vs GFP (GFP-14-3-3β; [5]): -0.5463 log2

Substance: YWHAB
- Difference (log2), PP1 vs untreated [1, 6]: -0.475 log2
- Difference (log2), untreated vs GFP (GFP-14-3-3β; [7]): 6.723 log2

Substance: YWHAE
- Difference (log2), PP1 vs untreated [1, 4]: -1.3 log2
- Difference (log2), untreated vs GFP (GFP-14-3-3β; [5]): 6.648 log2

Substance: YWHAG
- Difference (log2), PP1 vs untreated [1, 4]: -1.2523 log2
- Difference (log2), untreated vs GFP (GFP-14-3-3β; [5]): 8.569 log2

Substance: YWHAQ
- Difference (log2), PP1 vs untreated [1, 4]: -1.354 log2
- Difference (log2), untreated vs GFP (GFP-14-3-3β; [5]): 7.871 log2

Substance: YWHAZ
- Difference (log2), PP1 vs untreated [1, 4]: -1.298 log2
- Difference (log2), untreated vs GFP (GFP-14-3-3β; [5]): 6.453 log2

Substance: ZC3H4
- Difference (log2), PP1 vs untreated [1, 2]: -0.1033 log2
- Difference (log2), untreated vs GFP (GFP-14-3-3β; [3]): 0.7684 log2
